Assay results as given in US11904057B2, “Nanoparticle-hydrogel composite for nucleic acid molecule delivery” (The United States of America, as represented by the …, priority 2018, dated 2024).

Key:
H2052 cells [1] = experiment: Specificity of endocytosis inhibitors (Transferrin / Dextran uptake, flow cytometry); type: cell-based, human; settings: Transferrin and Dextran (70 kD) markers, 1 h
Procedure: FIGS. 10A-10D. Determining the effect of chemical inhibitors on endocytic uptake of Transferrin and Dextran (70 kD), the markers for clathrin-dependent and macropinocytic pathways, in H2052 human mesothelioma cells. Flow cytometric histograms of cells treated with (FIG. 10A) Rhodamine-labeled Transferrin for 1 h in presence or absence of Cytochalasin D, Dynasore, EIPA and cells treated (FIG. 10B) with Rhodamine-labeled Transferrin for 1 h in presence or absence of Cytochalasin D, Dynasore, EIPA. Flow cytometric histograms of cells (FIG. 10C) treated with FITC-labeled Dextran and cells treated with FITC-labeled Dextran (FIG. 10D) for 1 h in presence or absence of Nystatin.
Flow cytometry. In vitro miRNA transfection efficiency of nanoparticles was determined using human mesothelioma cell H2052 (ATCC). For flow cytometry, 1.2×10^5 cells were seeded on 6 well plate 24 h before treatment and allowed to grow under normal culture conditions. FAM (6-carboxyfluorescein, 5′ end)-labeled scrambled miRNA (Thermo Fisher) was complexed with Peptide 1 in a 10:1 N/P ratio according to the protocol described above. Nanoparticles obtained were diluted with optiMEM (Thermo Fisher) to maintain a final miRNA concentration of 40 nM. Complexes of commercial transfection agents (In vivo jet PEI, Polyplus-transfection and DharmaFECT, Dharmacon) and equivalent amount of miRNA were prepared according to manufacturers' instruction. […] To determine the specificity of the inhibitors towards each endocytic pathway in H2052 cells, cellular internalization of Rhodamine or FITC-labeled Transferrin (marker for clathrin mediated uptake, Thermo Fisher) and Rhodamine or FITC-labeled Dextran (70 kD, marker for micropinocytosis, Thermo Fisher) in presence and absence of inhibitors were analyzed with flow cytometry. […] Median fluorescence intensity (MFI) for gated live cell population was determined for cells treated with each inhibitor and normalized with respect to the sample without inhibitor treatment.

[2] = tested on: FAM-labeled scrambled miRNA; experiment: Fluorescence-based binding assay between peptides and miRNA; settings: 30 nM FAM-miRNA; peptide vs miRNA molar ratio 0.3125 to 1000; complexed in water, diluted with 25 mM HEPES pH 7.4
Procedure: Binding interactions among peptides and miRNA were studied using a fluorescence measurement. Scrambled miRNA (sequence mismatched with all possible mRNAs in human) labeled with FAM (6-carboxyfluorescein, 5′ end) was mixed with peptides having peptide vs miRNA molar ratio ranging from 0.3125 to 1000. Complexation was first performed in water, followed by dilution of the complex with HEPES (25 mM HEPES, pH 7.4) to keep pH of the suspension unaltered across all peptide concentrations. With increasing mole ratio, FAM fluorescence gradually gets quenched resulting from peptide-mediated condensation. […] Concentrations of Peptide 1 to induce maximum quenching were close to a molar ratio of 50:1 between Peptide 1 and miRNA which corresponds to an N/P ratio (charge ratio) of 10:1. Accordingly, a ratio of 10:1 as the N/P ratio was used for further assessment.
Fluorescence-based binding assay was used to determine interaction between peptides and miRNA. […] FAM fluorophore on miRNA was excited at 490 nm and emission at 520 nm was recorded using a microplate reader (Tecan Infinite 200) with a band-pass filter of 20 nm. A PTI fluorimeter was used to record fluorescence spectrum for Peptide 1/miRNA nanoparticles at N/P ratio 10:1 (molar ratio of 50:1, Peptide 1 vs miRNA) in the emission range of 500-700 nm.

[3] = Hydrogel composite formation with different hydrogelating peptides; type: physicochemical; settings: 24 h post-assembly, irrespective of nanoparticle loaded
Procedure: Preparation and characterization of hydrogel composites. Required amount of miRNA was diluted in water and mixed with an aqueous solution of Peptide 1 in a 10:1 N/P ratio to maintain a final volume of 25 μL. The suspension was incubated for 30 min at 37° C. with constant agitation and the resulting nanoparticles were mixed with 25 μL of chilled 2×HBS (50 mM HEPES 300 mM NaCl, pH 7.4). 50 μL of 1% (w/v) solution of a hydrogelating peptide (Peptides 1, 2, 3 and 4) was prepared in a chilled 25 mM HEPES (pH 7.4), mixed with an equal volume of nanoparticle suspension and incubated at 37° C. for overnight to afford 0.5 wt % hydrogel composites. Gel composites containing 1% of hydrogelating peptide was also prepared similarly. For Transmission Electron Microscopy of gel composites, ˜4 μL of the sample was deposited onto 200 mesh carbon coated copper grids and allowed to adhere for 30 seconds. The excess sample was removed with a filter paper. Uranyl acetate (5 μL) was used to stain the grids for 30 seconds. Grids were dried for 2-3 minutes. Images were acquired using a Tecnai T12 transmission electron microscope.

H2052 cells [4] = experiment: LDH cytotoxicity assay; type: cell-based, human; settings: 4 h post-incubation
Procedure: LDH assay kit (Roche) was used to determine any possible cytotoxicity of Peptide 1/miRNA nanoparticles and soluble Peptide 1. Cell supernatant was taken out after 4 h of treatment and a reaction mixture containing diaphorase/NAD+/iodotetrazolium chloride/sodium lactate was added following manufacturer's instructions to detect any released LDH (Lactate Dehydrogenase). Triton X-100 at a final concentration was used as a high control for maximal releasable LDH, while untreated cells were taken as low control for spontaneous LDH release. Absorbance was measured at 490 nm after 5 minutes of incubation at 37° C. Cytotoxicity was calculated using the equation: (Absorbance^treated−Absorbance^low control/Absorbance^high control−Absorbance^low control)×100.

[5] = Circular dichroism spectroscopy of Peptide 1 with miRNA / heparin; type: physicochemical
Procedure: Circular Dichroism Spectroscopy. Secondary structure of Peptide 1 in presence or absence of added miRNA was determined using Circular Dichroism (CD) spectroscopy. For recording CD spectra in water, 150 μL from the aqueous solutions of Peptide 1 was mixed with 150 μL of an aqueous solution of scrambled miRNA to maintain peptide vs miRNA N/P ratios at 10:1, 5:1, 2:1 and 1:1. These N/P ratios correspond to peptide vs miRNA mole ratios of 50:1, 25:1, 10:[…], respectively. Nanoparticles and soluble peptides of 300 μL total volume were equilibrated for 30 min at 37° C. with agitation. Final concentration of miRNA was maintained at 5 μM. Samples were transferred into a quartz cell of path-length 1 mm and data collection were initiated immediately. Ellipticity was measured over a wavelength range of 190-260 nm at 37° C., using 1 nm step size and a set of 3-5 scans. Raw data was corrected by subtracting the absorbance of samples from those of miRNA and converted to mean residue ellipticity using the equation: [θ]=θobs/(10*l*c*r) where θobs is the measured ellipticity (mdeg), l is the path length (0.1 cm), c is the concentration of peptide (determined from UV absorbance at 220 nm) and r corresponds to the number of amino acid residues in the peptide. […]

Molecule	Endocytic pathway inhibited (H2052 cells [1])	Extent of quenching of FAM fluorescence (peptide-mediated condensation of miRNA) [2]	also measured
CCN(c1nc(N)c(C(=O)NC(=N)N)nc1Cl)C(C)C [EIPA]	selective inhibitor of micropinocytosis		
VLTKVKTKV^DPPTKVEVKVLV-NH2 [Peptide 3]		not able to promote significant condensation of miRNA	
VKVKVKVKV^DPPTKVKVKVKV-NH2 [Peptide 1]		maximal	Formation of gel-like material when used as self-assembling peptide [3]: does not form a gel-like material; Cytotoxicity as compared to positive control Triton X-100 (H2052 cells [4]): 20%; Folding into a β-hairpin structure in the nanoparticles ([5]; N/P ratio 10:1, water): not enough to induce any significant folding; Heparin concentration at which evolution of β-sheet structure starts ([5]; Peptide 1 complexed with miRNA at N/P 10:1, water, 37° C.): 50 µg/mL
O=C(N/N=C/c1ccc(O)c(O)c1)c1cc2ccccc2cc1O [Dynasore]	inhibitors for clathrin-dependent pathways		
C=C1[C@@H](C)[C@H]2[C@H](Cc3ccccc3)NC(=O)[C@]23[C@H](OC(C)=O)/C=C/[C@@](C)(O)C(=O)[C@@H](C)C/C=C/[C@H]3[C@@H]1O [Cytochalasin D]	inhibitors for clathrin-dependent pathways		
